Assay results reported in paper PMC9960243, “Cytotoxic and Antileishmanial Effects of the Monoterpene β-Ocimene” (Pharmaceuticals, 2023).
Where two headings read alike, the source gives them in different places.

Tests used:
[1] = tested on: L. amazonensis axenic amastigotes; design: method as in PMID 23457021; conditions: read-out: IC50 against axenic amastigotes of L. amazonensis; cited from earlier work
[2] = tested on: Leishmania (Leishmania) amazonensis promastigotes; assay: microbe, parasite or virus in culture; format: cell-based; conditions: 72 h; for IC50: MTT
Description: (§1) Strains of Leishmania (Leishmania) amazonensis (IFLA/BR/67/PH8) (promastigote form) were cultivated in Schneider’s insect medium (supplemented with 10% FBS, and 1% antibiotic solution), at 26 °C, and at pH 7, in a biological oxygen demand (BOD) incubator. To transform the promastigote forms into axenic amastigotes, the temperature was increased to 32 °C and the pH of the medium was adjusted to 5.5 [14].
(§2) Promastigote and axenic amastigote growth inhibition was tested as previously described by DIAS et al.. In a 96-well plate, parasites were seeded at 10^6 parasites per well in 100 μL of supplemented Schneider medium. The parasites were treated with differing concentrations of β-ocimene (1.56–12.5 μM), and reference drugs, meglumine antimoniate (500–40,000 μM) and amphotericin B (0.062–0.5 μM). The plates were incubated in a BOD incubator at 26 °C for 72 h. Afterwards, 10 µL of MTT (5 mg/mL) was added to each well, and the plate was incubated again for 4 h, when 50 µL of 10% SDS was added. Absorbances were then measured using an ELISA plate reader (BioSystems model ELx800, Curitiba, PR, Brazil) at 540 nm. The negative control consisted of Schneider medium with 0.5% DMSO and was considered as 0% inhibition.

[3] = tested on: Leishmania (Leishmania) amazonensis axenic amastigotes; assay: microbe, parasite or virus in culture; format: cell-based; conditions: 72 h; for EC50: MTT
Description: as §1, §2

[4] = tested on: RAW 264.7 macrophages infected with Leishmania amazonensis; assay: Treatment of infected macrophages (intra-macrophagic amastigotes, 72 h); format: cell-based; conditions: for EC50: infected RAW 264.7 macrophages, read-out: Intramacrophagic Amastigotes EC50
Description: In a 24-well plate with 13 mm round sterile cover slips, RAW 264.7 macrophages were added (at a concentration of 10^5 cells to 1 mL of supplemented DMEM. For cell adhesion, the plates were incubated at 37 °C and 5% CO2 for 3 h. Three washes were then performed with PBS at 37 °C to discard non-adherent cells, after which 1 mL of DMEM supplemented (stationary phase) promastigote forms of L. amazonensis was added at the ratio of 10 promastigotes per macrophage. The plate was then incubated at 5% CO2 and 37 °C for 4 h. After infection, the medium was aspirated and the treatment was added using 1 mL of DMEM supplemented with β-ocimene (3.12–25 μM) with the reference drugs, meglumine antimoniate (1.56–200 μM) and amphotericin B (0.031–2 μM), this was subsequently incubated at 37 °C and 5% CO2 for 72 h. Finally, the coverslips were removed, fixed, stained, and mounted on permanent slides using Entellan. The number of infected macrophages and the number of parasites per macrophage were counted: 300 cells were evaluated on each slide at 1000× magnification. The infection index was calculated by multiplying the number of infected macrophages by the number of amastigotes per infected macrophage. The negative control was performed using DMEM with 0.5% DMSO. The supernatant was removed at the end of the experiment and kept at −20 °C for later use in nitric oxide dosing tests.

[5] = Cytotoxic effect on mammalian cells (MTT, 72 h), RAW 264.7; format: cell-based; conditions: mouse, RAW 264.7 macrophages; for CC50 at 72 h: pH 7.2, MTT
Description: (§3) RAW 264.7 lineage macrophages (available from the cell bank in Rio de Janeiro, Brazil) were used, grown in sterile bottles with DMEM medium, pH 7.2 containing 10% FBS and 1% penicillin 100 U/mL and streptomycin 100 μg/mL, and kept in an oven at 37 °C and 5% CO2.
(§4) In a 96-well plate, RAW 264.7 macrophages were plated at 10^5 cells per well in 100 μL of supplemented DMEM medium. The plate was incubated for 3 h at 37 °C and 5% CO2 for cell adhesion. Afterwards, to remove non-adhered cells, washing with PBS (phosphate-buffered saline solution) was performed. Furthermore, 100 μL of DMEM supplemented with β-ocimene (3.12–400 μM), and the reference drugs, meglumine antimoniate (250–2000 μM) and amphotericin B (0.062–0.5 μM) were then added to the wells, with oven incubation at 37 °C, and 5% CO2 for 72 h. Then, 10 μL of MTT (5 mg/mL) per well was then added, being kept for another 4 h in an oven at 37 °C and 5% CO2. The supernatant was removed, and 100 µL of DMSO was added to all wells. After 30 min of stirring, readings were taken at 540 nm. DMEM supplemented with 0.5% DMSO was used as a negative control and considered as 100% macrophage viability. The selectivity index for each treatment was calculated by dividing the CC50 by the IC50, or EC50 [32].

[6] = Cytotoxic effect on mammalian cells, Vero; format: cell-based; conditions: African green monkey, Vero cells
[7] = tested on: L. infantum promastigotes; design: method as in PMID 31151304; conditions: read-out: IC50 against L. infantum promastigotes; cited from earlier work
[8] = tested on: L. amazonensis promastigotes; design: method as in PMID 19321295; conditions: read-out: IC50 against L. amazonensis promastigotes; cited from earlier work
[9] = tested on: Promastigote forms of L. amazonensis; assay: Parasite morphological evaluation using atomic force microscopy (AFM); format: cell-based, Leishmania amazonensis; conditions: 1 × IC50 and 2 × IC50, 72 h
Description: Promastigote forms of L. amazonensis were grown in 96-well plates at a concentration of 10^6 per well in complete Schneider medium. β-ocimene was added at concentrations equivalent to IC50, 2 × IC50, and 4 × IC50, and incubated at 26 °C for 72 h in BOD, and the parasites were then washed twice with ice-cold PBS (under 1100× g for 15 min at room temperature), and then fixed with 2.5% (v/v) glutaraldehyde in PBS, pH 7.2, for 1 h. Morphological analysis using AFM (TT-AFM equipment, AFM Workshop-USA), at a resonant frequency of approximately 242 kHz, was then performed.

[10] = tested on: Leishmania amazonensis promastigote plasmatic membrane; format: cell-based; conditions: not told
Description: Plasma membrane integrity in promastigote forms of L. amazonensis treated with β-ocimene was evaluated using the SYTOX green dye method. Promastigote forms in logarithmic growth were seeded in Schneider medium and exposed to β-ocimene at concentrations corresponding to IC50, 2 × IC50 and 4 × IC50 in the presence of SYTOX green dye (5 μM) for 7 h at 26 °C in a BOD incubator. The plates were then read in a fluorescence reader with an emission filter of 523 nm and excitation at 488 nm.

[11] = tested on: RAW 264.7 macrophages; assay: Phagocytosis assay (stained zymosan); format: cell-based; conditions: 3.12–25 μM, 72 h, macrophages not stimulated by L. amazonensis
Description: RAW 264.7 macrophages were plated in a 96-well plate at 10^5 cells per well in 100 μL of DMEM medium containing different concentrations of β-ocimene (3.12–25 μM). The plate was incubated for 72 h at 37 °C and 5% CO2; after which 10 μL of stained zymosan per well was added, and the plate conditioned for 30 min at 37 °C. Then, 100 μL of Baker’s fixative (4% v/v formaldehyde, 2% w/v sodium chloride, and 1% w/v calcium acetate in distilled water) was added to stop phagocytosis, and 30 min later, the plate was washed with 0.9% saline to remove the zymosan not phagocytized by macrophages. Afterwards, the supernatant was removed and 100 μL of extraction solution was added and solubilized in a Kline shaker. Absorbances were measured at 540 nm.

[12] = tested on: RAW 264.7 macrophages uninfected and infected with Leishmania amazonensis; assay: Th1/Th2 cytokine (ELISA) and nitric oxide (Griess) production in macrophage supernatants; format: cell-based; conditions: 72 h
Description: Modulation of Th1 (TNF-α, IL-12), Th2 (IL-10, IL-6), and NO cytokine production was investigated in the supernatants of infected macrophages, whether treated or untreated with β-ocimene. Cytokine concentration (pg/mL) in macrophage supernatants was determined using the ELISA sandwich technique according to the manufacturer’s (eBioscience) instructions, using interpolation with a standard curve of recombinant cytokines. Optical density was read at 450 nm using a microplate spectrophotometer.
Nitrite levels from the supernatants of the infected macrophages, whether treated or untreated with β-ocimene, were used indirectly to estimate NO production. The NO concentration (µM) was determined using the Griess reaction following a previously described methodology, by interpolation with a standard curve with NaNO2.
LPS (1 μg/mL) plus IFN-γ (1000 U/mL) were used as a positive control.

[13] = tested on: macrophages infected with L. amazonensis; assay: Measurement of reactive oxygen species (H2DCFDA); format: cell-based; conditions: RAW 264.7 macrophages infected with L. amazonensis, 72 h
Description: ROS levels, as produced by the macrophages infected with L. amazonensis and treated with β-ocimene, were determined by the H2DCFDA test. Macrophages were infected according to Section 2.5 and treated with β-ocimene (3.12–12.6 µM) for 72 h. At the end of the period, 10 µL of 20 µM H2 DCFDA dye was added. The plate was incubated at 37 °C for 30 min (in the dark), and the fluorescence intensity was measured using a spectrofluorometer (FLx800) with excitation at 485 nm and emission at 528 nm.

[14] = tested on: RAW 264.7 macrophages; assay: Lysosomal activity (neutral red uptake); format: cell-based; conditions: 12.5 and 25 µM, 72 h, macrophages not stimulated by L. amazonensis
Description: RAW 264.7 macrophages were added (10^5 cells per well) to the 96-well plate in 100 μL of DMEM with different concentrations of β-ocimene (3.12–25 μM). The plate was incubated for 72 h at 37 °C and 5% CO2. Afterwards, 10 μL of neutral red 0.2% DMSO solution was added and incubated for 30 min. The supernatant was then removed, and the wells were washed with 0.9% saline at 37 °C, and 100 μL of extraction solution was added to dissolve the neutral red inside the lysosomal secretion vesicles. After 30 min on a Kline shaker, the plate was read at 540 nm.

[15] = tested on: RAW 264.7 macrophages; assay: Cytotoxic effect on mammalian cells (MTT, 72 h), RAW 264.7; format: cell-based; conditions: MTT
Description: as §3, §4

[16] = tested on: Vero cells; assay: Cytotoxic effect on mammalian cells, Vero; format: cell-based
[17] = Leishmania amazonensis, RAW264.7, 72 h
[18] = Leishmania, read-out: % Cytotoxicity Promastigotes
[19] = Leishmania, read-out: % Cytotoxicity Axenic Amastigotes
[20] = RAW 264.7 macrophages infected with L. amazonensis

Compound: NC(=S)NN=Cc1ccc([N+](=O)[O-])cc1 [4-nitrobenzaldehyde thiosemicarbazone]
- IC50 [1]: 8 µM

Compound: C[C@@H]1[C@H](O)[C@@H](C)/C=C/C=C/C=C/C=C/C=C/C=C/C=C/[C@H](O[C@@H]2O[C@H](C)[C@@H](O)[C@H](N)[C@@H]2O)C[C@@H]2O[C@](O)(C[C@@H](O)C[C@@H](O)[C@H](O)CC[C@@H](O)C[C@@H](O)CC(=O)O[C@H]1C)C[C@H](O)[C@H]2C(=O)O [Amphotericin B, reference compound]
- IC50 ([2]; Leishmania): 0.35 ± 0.09 µM
- EC50 ([3]; Leishmania): 0.51 ± 0.02 µM
- EC50 [4, 17]: 0.13 µM
- CC50 at 72 h [5]: 0.39 ± 0.03 µM
- CC50 [6]: 2.46 ± 0.6 µM

Compound: Cc1ccc(C(C)C)cc1O [carvacrol]
- IC50 [7]: 65 µM

Compound: C=C(C)[C@H]1CC=C(C)CC1 [limonene]
- IC50 [8]: 252 µM

Compound: Cc1ccc(C(C)C)c(O)c1 [thymol]
- IC50 [7]: 48 µM

Compound: C=C/C(C)=C/CC=C(C)C [β-ocimene, beta-3,7-dimethyl-1,3,6-octatriene]
- cytotoxicity at 1.56 µM [2, 18]: 27.3 ± 2.16%
- cytotoxicity at 3.12 µM [2, 18]: 70.2 ± 2.2%
- cytotoxicity at 6.25 µM [2, 18]: 81.4%
- cytotoxicity at 12.5 µM [2, 18]: 100%
- IC50 ([2]; Leishmania): 2.78 ± 0.17 µM
- cytotoxicity at 1.56 µM [3, 19]: 59.1 ± 2.4%
- cytotoxicity at 3.12 µM [3, 19]: 79.1 ± 3.7%
- cytotoxicity at 6.25 µM [3, 19]: 100%
- cytotoxicity at 12.5 µM [3, 19]: 100%
- EC50 ([3]; Leishmania): 1.12 ± 0.05 µM
- EC50 [4, 17]: 0.89 ± 0.03 µM
- times more selective than amphotericin B (selectivity index) ([4]; intra-macrophagic amastigote form): 42.88 times
- infection index (infection rate) ([4]; low concentrations, 72 h): able to reduce
- number of amastigotes per macrophage ([4]; low concentrations, 72 h): able to reduce
- percentage of infected macrophages ([4]; low concentrations, 72 h): able to reduce
- morphological alterations (AFM) [9]: Loose membrane texture and abnormalities in the cell shape
- plasmatic membrane permeability (SYTOX green fluorescent signal) [10]: significant increase in permeability
- phagocytic activity (zymosan particles) [11]: no increase in phagocytosis of zymosan particles
- cytotoxicity at 72 h, 50 µM ([5]; pH 7.2, 50 µM): 1.17 ± 0.09%
- cytotoxicity at 72 h, 100 µM ([5]; pH 7.2, 100 µM): 46.3 ± 4.11%
- cytotoxicity at 72 h, 200 µM ([5]; pH 7.2, 200 µM): 56.6 ± 5.92%
- cytotoxicity at 72 h, 400 µM ([5]; pH 7.2, 400 µM): 81.7 ± 8.16%
- CC50 at 72 h [5]: 114 ± 8.2 µM
- IL-6 levels [12, 20]: decrease
- IL-10 levels [12, 20]: decrease in levels of IL-10
- IL-12 levels [12, 20]: did not affect IL-12 levels
- NO production [12, 20]: increase
- TNF-α production [12, 20]: increase in the production of TNF-α
- cytokine levels of uninfected macrophages compared to the control ([12]; uninfected RAW 264.7 macrophages): no significant differences
- CC50 [6]: 299 ± 7.17 µM
- cytotoxicity at 50 µM ([6]; 50 µM): 1.14 ± 0.1%
- cytotoxicity at 100 µM ([6]; 100 µM): 6.04 ± 0.41%
- cytotoxicity at 200 µM ([6]; 200 µM): 36.2 ± 4.26%
- cytotoxicity at 400 µM ([6]; 400 µM): 69.2 ± 4.9%
- ROS production [13]: increase
- lysosomal volume (neutral red retention) [14]: increase in the volume of lysosomal vesicles

Compound: Meglumine antimoniate [reference compound]
- IC50 [2]: 2150 ± 31 µM
- EC50 [3]: 1730 ± 36.8 µM
- EC50 ([4]; 72 h): 578 ± 19.1 µM
- CC50 [15]: 15900 µM
- CC50 [16]: 22800 µM
